# Measured values published in ChEMBL document CHEMBL1201862, “PubChem BioAssay data set” (2004).
# Calls of active or inactive are those of the source.
# Legend:
# [1] = molecular target: T1, Long-chain-fatty-acid--AMP ligase FadD28 (Mycobacterium tuberculosis, UniProt P9WQ59); experiment: Fluorescence polarization aasay to screen for inhibitors that compete for the binding of FadD28 to a bisubstrate Measured in Biochemical System Using Plate Reader - 2147-01_Inhibitor_Dose_CherryPick_Activity.; type: functional, Mycobacterium tuberculosis H37Rv
# T1 sequence (P9WQ59 whole entry): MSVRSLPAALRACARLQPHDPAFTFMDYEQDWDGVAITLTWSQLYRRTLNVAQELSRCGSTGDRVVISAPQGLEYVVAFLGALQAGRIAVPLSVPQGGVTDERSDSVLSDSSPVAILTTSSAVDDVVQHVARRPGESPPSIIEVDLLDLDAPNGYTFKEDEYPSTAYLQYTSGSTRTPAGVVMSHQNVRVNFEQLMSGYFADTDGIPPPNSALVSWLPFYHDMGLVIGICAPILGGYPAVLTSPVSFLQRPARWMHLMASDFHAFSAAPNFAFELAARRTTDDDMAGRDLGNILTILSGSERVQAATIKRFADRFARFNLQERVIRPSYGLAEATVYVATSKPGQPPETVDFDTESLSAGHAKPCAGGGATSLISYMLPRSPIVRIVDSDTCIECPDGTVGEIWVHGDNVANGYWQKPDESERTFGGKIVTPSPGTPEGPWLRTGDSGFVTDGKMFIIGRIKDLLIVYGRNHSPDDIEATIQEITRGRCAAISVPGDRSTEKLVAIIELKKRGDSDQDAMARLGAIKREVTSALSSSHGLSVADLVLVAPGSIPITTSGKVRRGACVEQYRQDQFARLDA
# [2] = molecular target: T2, fMet-Leu-Phe receptor (Homo sapiens, UniProt P21462); experiment: FPR ligands, dose response (AID 519); type: functional
# T2 sequence (P21462 whole entry): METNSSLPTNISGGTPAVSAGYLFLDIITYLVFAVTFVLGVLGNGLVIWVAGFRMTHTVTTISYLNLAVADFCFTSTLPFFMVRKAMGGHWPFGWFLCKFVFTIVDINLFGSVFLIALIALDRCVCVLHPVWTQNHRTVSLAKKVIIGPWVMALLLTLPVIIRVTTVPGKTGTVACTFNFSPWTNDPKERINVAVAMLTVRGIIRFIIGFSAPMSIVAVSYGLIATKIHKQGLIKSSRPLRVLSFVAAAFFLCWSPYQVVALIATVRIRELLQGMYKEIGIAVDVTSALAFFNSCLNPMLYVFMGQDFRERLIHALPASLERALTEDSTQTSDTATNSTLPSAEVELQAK
# [3] = cells; type: functional, cell-based; details: HEK-CNG
# [4] = molecular target: T3, Galanin receptor type 3 (Homo sapiens, UniProt O60755); experiment: Fluorescence-based cell-based primary high throughput dose response assay to identify antagonists of the Galanin Receptor 3 (GalR3).; type: functional
# T3 sequence (O60755 whole entry): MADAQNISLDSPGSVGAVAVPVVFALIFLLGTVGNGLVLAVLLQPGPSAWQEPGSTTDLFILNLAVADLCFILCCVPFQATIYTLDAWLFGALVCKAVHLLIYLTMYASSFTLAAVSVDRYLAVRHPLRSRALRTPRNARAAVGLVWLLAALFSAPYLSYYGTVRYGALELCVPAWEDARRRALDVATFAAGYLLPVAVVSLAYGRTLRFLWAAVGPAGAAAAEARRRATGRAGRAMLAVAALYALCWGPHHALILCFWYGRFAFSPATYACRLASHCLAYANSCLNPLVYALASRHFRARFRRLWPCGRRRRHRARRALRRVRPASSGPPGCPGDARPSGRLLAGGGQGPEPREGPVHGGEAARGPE
# [5] = molecular target: T4, Nuclear receptor subfamily 0 group B member 1 (Homo sapiens, UniProt P51843); type: functional, cell-based;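 note: HEK293T cells transfected with SF-1 and DAX-1 plus StAR promoter luciferase reporter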
# T4 sequence (P51843 whole entry): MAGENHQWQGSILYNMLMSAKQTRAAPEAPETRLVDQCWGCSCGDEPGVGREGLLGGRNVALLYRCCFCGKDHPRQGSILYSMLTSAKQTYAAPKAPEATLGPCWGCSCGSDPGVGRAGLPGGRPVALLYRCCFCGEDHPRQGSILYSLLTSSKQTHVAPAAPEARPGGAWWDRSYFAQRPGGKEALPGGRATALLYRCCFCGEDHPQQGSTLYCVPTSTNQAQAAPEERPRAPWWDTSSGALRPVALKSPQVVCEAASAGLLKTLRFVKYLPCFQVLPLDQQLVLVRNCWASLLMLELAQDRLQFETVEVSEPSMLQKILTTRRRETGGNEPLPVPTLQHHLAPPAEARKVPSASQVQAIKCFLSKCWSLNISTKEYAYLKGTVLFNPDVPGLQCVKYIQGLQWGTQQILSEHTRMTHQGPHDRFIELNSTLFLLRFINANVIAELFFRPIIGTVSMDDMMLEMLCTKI
# [6] = cells; type: functional, cell-based
# [7] = Luminescence Cell-Based Dose Confirmation HTS to Identify Inhibitors of Platelet Dense Granule Release. [Related pubchem assays: 1663 (Primary HTS), 1678 (Summary of Project)]; type: functional
# [8] = molecular target: Luciferin 4-monooxygenase (Photinus pyralis, UniProt P08659); experiment: firefly luciferase enzyme inhibitors, dose response, biochemical, luminescence (AID 1891)
# [9] = molecular target: Beta-galactosidase (Escherichia coli, UniProt Q8VNN2); experiment: Dose response counterscreen for EBI2 assay utilizing the enzyme, b-galactosidase.; type: functional
# [10] = cytotoxicity in HEK-293T cells, dose response, cytotoxicity control for TCR NF-kB inhibitor project, luminescence, T-cell screen hits (AID 489026); type: functional, cell-based;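 note: cells exposed to compound about 14 hours before the viability readout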
# [11] = Shn3 3'UTR reporter inhibitors, dose response, cell-based, Clone20 osteoblasts, firefly luciferase, cherry-picked (AID 624132); type: functional;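 note: firefly luciferase luminescence from reporter carrying the Shn3 3'UTR in osteoblasts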
# [12] = HepG2 cell cytotoxicity, dose response, cytotoxicity control for Shn3 inhibitor project, CellTiter-Glo, cherry-picked (AID 624134); type: functional, cell-based
# [13] = control 3'UTR Renilla luciferase suppression, dose response, counter-screen for Shn3 inhibitor project, cell-based, Clone20-Shn3RL, cherry-picked (AID 624133); type: functional
# [14] = molecular target: T5, Corticotropin-releasing factor receptor 2/Corticotropin-releasing factor-binding protein (Homo sapiens, UniProt P24387+Q13324); experiment: Dose Response confirmation of uHTS hits for small molecule antagonists of the CRF-binding protein and CRF-R2 receptor complex.; type: functional; details: read-out: IC50_Mean
# T5 sequence (Q13324 whole entry): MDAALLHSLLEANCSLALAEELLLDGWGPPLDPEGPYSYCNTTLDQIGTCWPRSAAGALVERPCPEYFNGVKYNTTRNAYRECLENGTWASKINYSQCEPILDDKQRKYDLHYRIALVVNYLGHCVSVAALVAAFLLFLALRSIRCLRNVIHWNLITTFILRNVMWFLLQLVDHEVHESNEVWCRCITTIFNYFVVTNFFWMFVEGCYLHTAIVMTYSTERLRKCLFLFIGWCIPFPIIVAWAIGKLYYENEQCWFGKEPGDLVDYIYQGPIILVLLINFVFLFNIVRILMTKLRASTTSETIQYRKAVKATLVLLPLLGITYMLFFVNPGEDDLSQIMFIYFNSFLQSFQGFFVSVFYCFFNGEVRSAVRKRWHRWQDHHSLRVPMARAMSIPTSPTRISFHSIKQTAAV
# T5 sequence (P24387 whole entry): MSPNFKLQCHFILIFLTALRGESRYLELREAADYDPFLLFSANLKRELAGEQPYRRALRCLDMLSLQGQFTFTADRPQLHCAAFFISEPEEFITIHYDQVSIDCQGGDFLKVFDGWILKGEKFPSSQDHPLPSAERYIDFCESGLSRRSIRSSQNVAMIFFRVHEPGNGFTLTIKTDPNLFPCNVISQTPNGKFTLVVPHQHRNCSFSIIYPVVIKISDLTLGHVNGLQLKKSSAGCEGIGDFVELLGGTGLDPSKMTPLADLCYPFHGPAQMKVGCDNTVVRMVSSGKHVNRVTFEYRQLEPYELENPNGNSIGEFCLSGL
# [15] = molecular target: T5, Corticotropin-releasing factor receptor 2/Corticotropin-releasing factor-binding protein; experiment: activators of CRF receptor 2 with binding protein – uHTS hits, confirmation (AID 602473); type: functional; details: read-out: EC50_Mean
# [16] = molecular target: T6, Fatty acid synthase (Homo sapiens, UniProt P49327); experiment: FAS thioesterase domain inhibitors, dose response, biochemical, kinetic fluorescence intensity (AID 624326); type: functional;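 note: rate of fluorescence rise from hydrolysis of a fluorogenic O-methyl fluorescein ester substrate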
# [17] = molecular target: T6, Fatty acid synthase; experiment: FAS thioesterase domain inhibitors, dose response, biochemical, endpoint fluorescence intensity, uHTS hits (AID 624327); type: functional;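 note: fluorescence from hydrolysis of an O-methyl fluorescein acyl ester substrate by the enzyme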
# [18] = molecular target: T7, Probable nicotinate-nucleotide adenylyltransferase (Staphylococcus aureus (strain N315), UniProt P65502); type: functional, Staphylococcus aureus subsp. aureus N315; details: read-out: IC50_Mean;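 for IC50 Mean: confirmatory dose-response retesting of NadD inhibitor hits first found in an ultra-high-throughput screen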
# [19] = system: INS1; experiment: beta cell apoptosis inhibitors, cytokine rescue, dose response, luminescence, retest (AID 449756); type: functional, cell-based; details: Rattus norvegicus;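 note: cell death triggered by IL-1 beta plus TNF-alpha plus IFN-gamma mixture; protective hits raise ATP signal compared with cytokine alone wells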
# [20] = molecular target: T7, Probable nicotinate-nucleotide adenylyltransferase; type: functional, Staphylococcus aureus subsp. aureus N315
# [21] = system: Streptococcus sp. 'group A'; experiment: growth inhibition of control SK(-) GAS strain, dose response, counter-screen for streptokinase expression inhibitor project, luminescence, kanamycin, BacTiterGlo, confirmation (AID 1900); type: functional, organism-based
# [22] = system: Streptococcus; experiment: Group A Streptococcus viability loss, dose response, counter-screen for streptokinase expression inhibitor project, luminescence, BacTiterGlo (AID 1915); type: functional, organism-based;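 note: potency for reduction of bacterial viability or growth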
# [23] = molecular target: T8, RNA-binding protein pos-1 (Caenorhabditis elegans, UniProt G5EF15); experiment: inhibitors of POS-1/mex-3 RNA binding, dose response, biochemical, fluorescence polarization (AID 1964);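 note: purified POS-1 fused to maltose binding protein made in E. coli; potency of compounds blocking POS-1 binding to fluorescent RNA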
# T8 sequence (G5EF15 whole entry): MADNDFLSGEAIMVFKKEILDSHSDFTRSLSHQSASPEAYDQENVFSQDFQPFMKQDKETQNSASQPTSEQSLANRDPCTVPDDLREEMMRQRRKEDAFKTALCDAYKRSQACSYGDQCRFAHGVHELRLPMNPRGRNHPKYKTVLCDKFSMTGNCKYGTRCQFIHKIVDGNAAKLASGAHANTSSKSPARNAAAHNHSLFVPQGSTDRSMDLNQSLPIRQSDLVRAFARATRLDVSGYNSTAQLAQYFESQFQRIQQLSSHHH
# [24] = molecular target: T9, Zinc finger protein mex-5 (Caenorhabditis elegans, UniProt Q9XUB2); experiment: MEX-5/TCR-2 RNA interaction inhibitors, dose response, biochemical, C. elegans, fluorescence polarization (AID 1960)
# T9 sequence (Q9XUB2 whole entry): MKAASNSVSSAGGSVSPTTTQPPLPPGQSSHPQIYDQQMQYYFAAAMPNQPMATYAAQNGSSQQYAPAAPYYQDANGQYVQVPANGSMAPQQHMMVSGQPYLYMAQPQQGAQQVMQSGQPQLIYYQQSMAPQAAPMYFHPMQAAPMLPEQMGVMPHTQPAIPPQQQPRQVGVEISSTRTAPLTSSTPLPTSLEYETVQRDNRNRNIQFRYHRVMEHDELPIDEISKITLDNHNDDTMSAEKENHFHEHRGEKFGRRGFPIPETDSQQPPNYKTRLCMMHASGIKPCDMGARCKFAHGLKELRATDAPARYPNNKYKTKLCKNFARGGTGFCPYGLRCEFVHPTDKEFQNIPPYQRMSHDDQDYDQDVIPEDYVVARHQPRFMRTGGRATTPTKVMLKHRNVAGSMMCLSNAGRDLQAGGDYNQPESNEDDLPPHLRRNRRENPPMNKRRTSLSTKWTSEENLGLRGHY
# T7 sequence (P65502 whole entry): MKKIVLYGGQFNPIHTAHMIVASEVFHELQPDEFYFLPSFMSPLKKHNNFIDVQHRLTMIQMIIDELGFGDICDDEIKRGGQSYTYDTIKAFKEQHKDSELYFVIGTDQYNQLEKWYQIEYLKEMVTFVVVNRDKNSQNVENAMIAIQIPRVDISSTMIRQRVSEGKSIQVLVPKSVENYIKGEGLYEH
# Sequence of Beta-galactosidase (Q8VNN2 whole entry): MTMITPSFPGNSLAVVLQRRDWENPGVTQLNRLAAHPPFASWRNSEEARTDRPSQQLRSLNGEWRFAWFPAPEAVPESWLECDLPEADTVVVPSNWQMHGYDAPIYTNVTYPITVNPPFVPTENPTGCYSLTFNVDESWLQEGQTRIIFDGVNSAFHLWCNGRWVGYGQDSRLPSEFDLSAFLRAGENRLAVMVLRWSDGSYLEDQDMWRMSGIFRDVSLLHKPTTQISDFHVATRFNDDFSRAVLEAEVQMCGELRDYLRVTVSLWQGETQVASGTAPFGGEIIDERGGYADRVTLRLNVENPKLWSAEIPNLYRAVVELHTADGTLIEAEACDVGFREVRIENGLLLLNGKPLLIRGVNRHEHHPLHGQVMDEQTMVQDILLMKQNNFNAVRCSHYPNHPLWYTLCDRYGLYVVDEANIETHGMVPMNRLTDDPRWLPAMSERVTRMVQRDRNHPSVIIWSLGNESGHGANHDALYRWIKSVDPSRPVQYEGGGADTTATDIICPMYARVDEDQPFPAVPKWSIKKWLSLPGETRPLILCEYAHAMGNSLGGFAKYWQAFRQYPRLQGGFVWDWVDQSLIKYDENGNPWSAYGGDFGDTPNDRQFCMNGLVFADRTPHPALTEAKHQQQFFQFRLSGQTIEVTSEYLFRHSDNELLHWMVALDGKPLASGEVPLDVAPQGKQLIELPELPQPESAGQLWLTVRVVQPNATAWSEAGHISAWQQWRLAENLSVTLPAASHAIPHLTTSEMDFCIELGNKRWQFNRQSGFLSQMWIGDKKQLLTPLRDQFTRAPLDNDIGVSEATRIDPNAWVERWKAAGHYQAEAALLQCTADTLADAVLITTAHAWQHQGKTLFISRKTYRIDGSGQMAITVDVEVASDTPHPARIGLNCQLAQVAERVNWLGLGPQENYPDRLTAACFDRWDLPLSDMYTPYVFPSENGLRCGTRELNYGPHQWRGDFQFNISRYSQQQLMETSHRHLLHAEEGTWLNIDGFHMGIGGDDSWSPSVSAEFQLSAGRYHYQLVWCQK
# T6 sequence (P49327 whole entry, the tested form may be a part): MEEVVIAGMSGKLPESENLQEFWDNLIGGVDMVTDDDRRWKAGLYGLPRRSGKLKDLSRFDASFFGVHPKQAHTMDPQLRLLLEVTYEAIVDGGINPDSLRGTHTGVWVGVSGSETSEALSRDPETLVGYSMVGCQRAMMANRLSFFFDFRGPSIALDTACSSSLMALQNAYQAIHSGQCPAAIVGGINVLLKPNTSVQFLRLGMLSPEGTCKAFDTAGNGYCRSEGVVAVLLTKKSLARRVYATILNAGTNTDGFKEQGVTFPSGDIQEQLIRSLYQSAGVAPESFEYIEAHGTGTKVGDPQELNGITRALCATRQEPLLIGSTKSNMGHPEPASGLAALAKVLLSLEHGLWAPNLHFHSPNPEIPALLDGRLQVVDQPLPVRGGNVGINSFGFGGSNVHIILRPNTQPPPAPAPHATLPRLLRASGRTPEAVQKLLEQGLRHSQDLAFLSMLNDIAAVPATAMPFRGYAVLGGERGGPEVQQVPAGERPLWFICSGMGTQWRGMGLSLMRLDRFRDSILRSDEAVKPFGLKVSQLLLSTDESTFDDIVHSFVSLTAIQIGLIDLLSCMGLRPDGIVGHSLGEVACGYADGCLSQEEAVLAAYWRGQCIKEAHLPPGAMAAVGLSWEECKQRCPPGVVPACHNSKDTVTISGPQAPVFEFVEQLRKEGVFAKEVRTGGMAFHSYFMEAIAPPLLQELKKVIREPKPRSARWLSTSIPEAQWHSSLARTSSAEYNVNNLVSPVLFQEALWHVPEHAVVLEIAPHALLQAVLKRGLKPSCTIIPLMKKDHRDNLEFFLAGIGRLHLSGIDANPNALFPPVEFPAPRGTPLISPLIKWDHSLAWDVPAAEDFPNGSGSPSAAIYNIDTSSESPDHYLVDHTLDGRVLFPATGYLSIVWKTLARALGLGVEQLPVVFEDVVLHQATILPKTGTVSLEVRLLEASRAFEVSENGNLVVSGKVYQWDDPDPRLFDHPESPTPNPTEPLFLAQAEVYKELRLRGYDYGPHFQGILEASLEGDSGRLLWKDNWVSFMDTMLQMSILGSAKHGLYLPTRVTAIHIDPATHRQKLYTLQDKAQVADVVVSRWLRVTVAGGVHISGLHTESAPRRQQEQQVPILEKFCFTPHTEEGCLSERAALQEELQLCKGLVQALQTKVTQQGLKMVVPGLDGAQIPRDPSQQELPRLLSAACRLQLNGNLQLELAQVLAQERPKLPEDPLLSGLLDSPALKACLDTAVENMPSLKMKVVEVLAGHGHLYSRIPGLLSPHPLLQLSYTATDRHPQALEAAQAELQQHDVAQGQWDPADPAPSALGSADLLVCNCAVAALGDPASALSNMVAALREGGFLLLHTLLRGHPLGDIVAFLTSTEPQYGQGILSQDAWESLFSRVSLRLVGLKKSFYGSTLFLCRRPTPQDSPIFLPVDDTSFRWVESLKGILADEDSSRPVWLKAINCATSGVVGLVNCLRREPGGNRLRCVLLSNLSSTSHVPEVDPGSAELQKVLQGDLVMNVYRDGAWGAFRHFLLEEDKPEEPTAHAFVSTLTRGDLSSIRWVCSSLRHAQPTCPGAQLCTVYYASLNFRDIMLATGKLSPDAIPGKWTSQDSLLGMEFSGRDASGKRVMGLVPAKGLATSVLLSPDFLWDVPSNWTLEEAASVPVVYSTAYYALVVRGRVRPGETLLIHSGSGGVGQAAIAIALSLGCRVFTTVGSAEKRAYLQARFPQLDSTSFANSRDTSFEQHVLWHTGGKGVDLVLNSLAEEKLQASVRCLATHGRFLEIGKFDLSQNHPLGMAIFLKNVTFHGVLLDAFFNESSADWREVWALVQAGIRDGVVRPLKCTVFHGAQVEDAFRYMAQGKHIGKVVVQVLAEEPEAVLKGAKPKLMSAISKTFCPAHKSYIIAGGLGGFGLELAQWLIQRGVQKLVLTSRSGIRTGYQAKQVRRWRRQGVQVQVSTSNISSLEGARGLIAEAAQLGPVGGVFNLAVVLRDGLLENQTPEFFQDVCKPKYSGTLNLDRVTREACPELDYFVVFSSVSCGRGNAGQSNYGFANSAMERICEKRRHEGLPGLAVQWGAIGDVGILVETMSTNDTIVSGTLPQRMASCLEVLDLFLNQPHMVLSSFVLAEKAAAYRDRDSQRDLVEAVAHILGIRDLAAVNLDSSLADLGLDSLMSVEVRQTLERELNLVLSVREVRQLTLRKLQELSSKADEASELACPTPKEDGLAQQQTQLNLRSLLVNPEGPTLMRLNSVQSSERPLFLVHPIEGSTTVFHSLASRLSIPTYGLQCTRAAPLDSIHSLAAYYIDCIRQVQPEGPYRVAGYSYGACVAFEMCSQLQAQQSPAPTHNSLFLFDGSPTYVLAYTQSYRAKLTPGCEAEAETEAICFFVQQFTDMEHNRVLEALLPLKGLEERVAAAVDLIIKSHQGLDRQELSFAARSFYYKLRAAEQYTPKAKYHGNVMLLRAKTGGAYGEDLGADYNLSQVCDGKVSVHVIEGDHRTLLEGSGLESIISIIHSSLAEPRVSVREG
# Sequence of Luciferin 4-monooxygenase (P08659 whole entry): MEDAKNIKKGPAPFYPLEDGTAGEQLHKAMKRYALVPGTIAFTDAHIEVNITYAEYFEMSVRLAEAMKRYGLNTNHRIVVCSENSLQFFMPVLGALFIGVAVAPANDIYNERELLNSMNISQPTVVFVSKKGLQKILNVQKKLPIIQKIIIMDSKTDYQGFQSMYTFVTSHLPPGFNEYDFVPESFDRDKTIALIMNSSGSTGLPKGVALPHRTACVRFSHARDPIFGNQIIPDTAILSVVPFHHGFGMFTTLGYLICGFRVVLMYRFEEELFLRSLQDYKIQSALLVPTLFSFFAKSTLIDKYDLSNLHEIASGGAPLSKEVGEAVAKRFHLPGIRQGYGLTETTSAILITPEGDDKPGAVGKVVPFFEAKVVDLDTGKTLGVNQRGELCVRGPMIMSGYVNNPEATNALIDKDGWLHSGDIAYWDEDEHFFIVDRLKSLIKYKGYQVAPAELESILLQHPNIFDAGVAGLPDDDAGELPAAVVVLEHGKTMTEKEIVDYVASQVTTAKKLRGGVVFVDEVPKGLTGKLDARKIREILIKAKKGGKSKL
compound,measurement,setting,value
C/C(Cl)=C/Cn1c(SC(C)C)nc2c1c(=O)[nH]c(=O)n2C,AC50,[1],> 100 µM (inactive)
Cc1ccc(C2C3=C(O)CC(C)(C)CC3=Nc3nc(S)nc(O)c32)cc1 (stereo not given),Ki,[2],47.9 µM (inactive)
CCC(=O)Nc1c(C#N)c2nc3ccccc3nc2n1-c1ccccc1C,Ki,[2],12 µM (active)
COc1ccc(-n2c(C)cc(C(=O)COC(=O)Cn3cnc4ccccc43)c2C)cc1,EC50,[3],> 29.9 µM (inactive)
same,IC50,[4],0.762 µM (active)
S=C(NCCc1ccccc1)Nc1ncccn1,IC50,[5],> 67.5 µM (inactive)
same,IC50,[6],> 67.5 µM (inactive)
O=C(c1cc2cc(F)ccc2[nH]1)N1CCN(Cc2ccc3c(c2)OCO3)CC1,EC50,[7],> 112 µM (not active)
same,EC50,[8],> 112 µM (not active)
same,IC50,[9],> 80 µM (inactive)
Cc1ccc(Oc2ccc(OCC(=O)Nc3ccncc3)cc2)cc1,IC50,[10],> 80 µM (inactive)
same,AC50,[11],1.55 µM (active)
same,EC50,[3],> 29.9 µM (inactive)
same,AC50,[12],4.76 µM (active)
same,AC50,[13],< 1 µM (active)
same,IC50,[4],0.158 µM (active)
COc1ccc(N2CCN(C(=O)c3cc(=O)c4cc(C)c(C)cc4o3)CC2)cc1,IC50,[14],> 47.1 µM (inactive)
same,EC50,[15],> 53 µM (inactive)
same,IC50,[9],> 80 µM (inactive)
Cc1ccc(S(=O)(=O)Nc2ccccc2C(=O)Nc2nc(-c3ccc(F)cc3)cs2)cc1,IC50,[16],10.7 µM (active)
same,IC50,[17],9.65 µM (active)
same,IC50,[18],62.2 µM (active)
same,AC50,[19],2.97 µM (active)
same,EC50,[3],> 29.9 µM (inactive)
same,IC50,[20],7.69 µM (active)
same,IC50,[4],1.44 µM (active)
COc1ccc(/C=C/C(=O)N2CCN(S(=O)(=O)/C=C/c3ccccc3)CC2)cc1OC,IC50,[9],> 80 µM (inactive)
CCc1nnc(NS(=O)(=O)c2ccc(/N=C/c3c(C)nn(-c4ccc(Cl)cc4)c3O)cc2)s1,IC50,[18],25.5 µM (active)
same,IC50,[20],6.87 µM (active)
Cc1ccc2sc(NNC(=O)c3cc(=O)c4ccccc4o3)nc2c1C,EC50,[21],0.744 µM (active)
same,EC50,[22],2.5 µM (active)
same,IC50,[18],17.7 µM (active)
same,EC50,[23],> 300 µM (not active)
same,EC50,[24],> 300 µM (inconclusive)
same,IC50,[20],4.17 µM (active)
